The values that follow come from patent US12247033B2, “Triazole-substituted imidazo[1,2-a]pyrimidines as cGAS inhibitors” (GlaxoSmithKline Intellectual Property Development Limited, priority 2022, dated 2025).

≈ marks a conversion by molar mass, not a printed value. Counter-ions that a name gives are not always drawn. Where only a bound is given, the exact number is not on record here.

What is called solubility is the dissolved amount per volume that the medium holds. The low end stands for a poorly soluble substance, the high end for a readily soluble substance.

A short description of data set [1]: FaSSIF solubility (Fasted State Simulated Intestinal Fluid). The format is physicochemical. The settings on record: thermodynamic from solid, FaSSIF pH 6.5, 4 h equilibration at room temperature, dynamic range 1-1000 μg/mL. The procedure: 1 mL of FaSSIF buffer (3 mM sodium taurocholate, 0.75 mM lecithin in sodium phosphate buffer at pH 6.5) was added to manually weighed 1 mg of the solid compound in a 4 mL vial. […] The residual solid was removed by filtration. The supernatant solution was quantified by HPLC-UV using single point calibration of a known concentration of the compound in DMSO. The dynamic range of the assay was 1-1000 μg/mL.

Another data set deals with CGAS. Put plainly: CGAS whole blood cytokine release assay (384-well, BacMam stimulation, IP-10 by cytometric bead array). In kind it is cell-based. The settings on record: Homo sapiens, 6 h; read-out: hWB pXC50 (converted). A digest of the protocol: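 Heparinised human donor whole blood mixed with serially diluted compound plus Null BacMam stimulus, incubated 6 h at 37° C, 5% CO2. Supernatant IP-10 quantified by cytometric bead array on flow cytometer (488 nm excitation, 585/40 nm emission); inhibition of IP-10 calculated.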

A further data set has as its target human CGAS (157-522) (Homo sapiens, UniProt Q8N884). Briefly: biochemical.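 Note: biochemical enzyme reaction, 2′3′-cGAMP product measured by RapidFire mass spectrometry (MRM) normalised to c-di-UMP internal standard, inhibition of product formation relative to high and low control wells.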

Sequence of human CGAS (157-522) (Q8N884 157-522): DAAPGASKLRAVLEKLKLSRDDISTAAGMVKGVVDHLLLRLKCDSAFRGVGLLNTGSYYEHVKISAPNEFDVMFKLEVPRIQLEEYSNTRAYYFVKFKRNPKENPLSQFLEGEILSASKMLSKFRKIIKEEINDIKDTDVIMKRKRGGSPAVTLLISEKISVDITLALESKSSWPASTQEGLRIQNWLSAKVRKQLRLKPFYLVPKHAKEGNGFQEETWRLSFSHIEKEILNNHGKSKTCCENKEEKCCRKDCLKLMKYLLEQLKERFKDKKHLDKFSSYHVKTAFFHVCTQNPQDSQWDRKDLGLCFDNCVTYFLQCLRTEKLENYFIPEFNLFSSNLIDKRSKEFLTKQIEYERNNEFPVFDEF

For `O=C(O)CCC(=O)OCn1cnc(-c2c(-c3nc(C(F)(F)F)n[nH]3)nc3ncccn23)c1` [Example 23, 4-oxo-4-[(4-{2-[3-(trifluoromethyl)-1H-1,2,4-triazol-5-yl]imidazo[1,2-a]pyrimidin-3-yl}-1H-imidazol-1-yl)methoxy]butanoic acid], the solubility at 4 h in data set [1] was 455 µg/mL (≈ 1010 µM). The results for the IC50 in the data set with CGAS and against human CGAS (157-522) were 794 nM and 251 nM, respectively.

Regarding `CNCCOC(=O)OCn1nc(C(F)(F)F)nc1-c1nc2ncccn2c1-c1cnc[nH]1` [Example 28, {5-[3-(1H-imidazol-5-yl)imidazo[1,2-a]pyrimidin-2-yl]-3-(trifluoromethyl)-1H-1,2,4-triazol-1-yl}methyl 2-(methylamino)ethyl carbonate, 2 trifluoroacetic acid salt], in data set [1], the solubility at 4 h is 208 µg/mL. For the same molecule, the IC50 was 316 nM in the data set on CGAS and 3.16 nM at human CGAS (157-522).

In data set [1], `O=C(CCCOP(=O)(O)O)OCn1cnc(-c2c(-c3nc(C(F)(F)F)n[nH]3)nc3ncccn23)c1` [Example 29, {4-oxo-4-[(4-{2-[3-(trifluoromethyl)-1H-1,2,4-triazol-5-yl]imidazo[1,2-a]pyrimidin-3-yl}-1H-imidazol-1-yl)methoxy]butoxy}phosphonic acid, trifluoroacetic acid salt] registered a solubility at 4 h of over 1000 µg/mL. Moreover, the IC50 in the data set with CGAS was 316 nM; against human CGAS (157-522), 31.6 nM.

As to `CNCC(=O)OCc1cccnc1N(C)C(=O)OC(C)n1cncc1-c1c(-c2nc(C(F)(F)F)n[nH]2)nc2ncccn12` (centres unmarked) [Example 25, {2-[methyl({[1-(5-{2-[3-(trifluoromethyl)-1H-1,2,4-triazol-5-yl]imidazo[1,2-a]pyrimidin-3-yl}-1H-imidazol-1-yl)ethoxy]carbonyl})amino]pyridin-3-yl}methyl 2-(methylamino)acetate, hydrochloride salt], the solubility at 4 h in data set [1] is over 1000 µg/mL. Moreover, the values for the IC50 with CGAS and against human CGAS (157-522) were 316 nM and 25.1 nM, respectively.

In data set [1], `CNCCOC(=O)OCn1cnc(-c2c(-c3nc(C(F)(F)F)nn3COC(=O)OCCNC)nc3ncccn23)c1` [Example 27, [4-(2-{1-[({[2-(methylamino)ethoxy]carbonyl}oxy)methyl]-3-(trifluoromethyl)-1H-1,2,4-triazol-5-yl}imidazo[1,2-a]pyrimidin-3-yl)-1H-imidazol-1-yl]methyl 2-(methylamino)ethyl carbonate, 2 trifluoroacetic acid salt] registered a solubility at 4 h of 298 µg/mL. Further, in the data set with CGAS, the IC50 is 158 nM.

Take `CC(C)[C@H](N)C(=O)OCn1cnc(-c2c(-c3nc(C(F)(F)F)nn3COC(=O)[C@@H](N)C(C)C)nc3ncccn23)c1` [Example 24, (4-{2-[1-({[(2S)-2-amino-3-methylbutanoyl]oxy}methyl)-3-(trifluoromethyl)-1H-1,2,4-triazol-5-yl]imidazo[1,2-a]pyrimidin-3-yl}-1H-imidazol-1-yl)methyl (2S)-2-amino-3-methylbutanoate, 2 trifluoroacetic acid salt]: in data set [1], the solubility at 4 h was 324 µg/mL. The molecule also had an IC50 against human CGAS (157-522) of 63.1 nM.

Regarding `FC(F)(F)c1n[nH]c(-c2nc3nc4c(cn3c2-c2cnc[nH]2)COCC4)n1` [Example 71, 6-(1H-imidazol-5-yl)-5-[3-(trifluoromethyl)-1H-1,2,4-triazol-5-yl]-11-oxa-2,4,7-triazatricyclo[7.4.0.0^3,^7]trideca-1,3,5,8-tetraene], the IC50 in the data set on CGAS is 126 nM; against human CGAS (157-522), 5.01 nM.

With `FC(F)(F)c1n[nH]c(-c2nc3nc4c(cn3c2-c2cnc[nH]2)CCCC4)n1` [Example 134, 5-[3-(1H-imidazol-5-yl)-6H,7H,8H,9H-imidazo[2,1-b]quinazolin-2-yl]-3-(trifluoromethyl)-1H-1,2,4-triazole], the IC50 was 398 nM with CGAS and 3.98 nM against human CGAS (157-522).

Turning to `Brc1n[nH]c(-c2nc3nc4c(cn3c2-c2cnc[nH]2)CCO4)n1` [Example 57, 11-(3-bromo-1H-1,2,4-triazol-5-yl)-12-(1H-imidazol-5-yl)-6-oxa-1,8,10-triazatricyclo[7.3.0.0^3,^7]dodeca-2,7,9,11-tetraene], the IC50 in the data set with CGAS is 63.1 nM; on human CGAS (157-522), 5.01 nM.

For `FC(F)c1n[nH]c(-c2nc3nc(C(F)(F)F)ccn3c2-c2cnc[nH]2)n1` [Example 88, 3-(difluoromethyl)-5-[3-(1H-imidazol-5-yl)-7-(trifluoromethyl)imidazo[1,2-a]pyrimidin-2-yl]-1H-1,2,4-triazole], the IC50 in the data set on CGAS is 501 nM; against human CGAS (157-522) it was 5.01 nM.

`O=P(O)(O)OCn1nc(C(F)(F)F)nc1-c1nc2ncc(F)cn2c1-c1cnc[nH]1` [Example 34, ({5-[6-fluoro-3-(1H-imidazol-5-yl)imidazo[1,2-a]pyrimidin-2-yl]-3-(trifluoromethyl)-1H-1,2,4-triazol-1-yl}methoxy)phosphonic acid]: the solubility at 4 h in data set [1] is over 1000 µg/mL. The same molecule gave an IC50 at human CGAS (157-522) of 794 nM.

For the molecule `FC(F)c1n[nH]c(-c2nc3ncccn3c2-c2cnc[nH]2)n1` [Example 50, 3-(difluoromethyl)-5-[3-(1H-imidazol-5-yl)imidazo[1,2-a]pyrimidin-2-yl]-1H-1,2,4-triazole], the IC50 in the data set with CGAS is 79.4 nM; on human CGAS (157-522), 3.16 nM.

In the case of `CSc1ccn2c(-c3cnc[nH]3)c(-c3nc(C(F)(F)F)n[nH]3)nc2n1` [Example 21, 5-[3-(1H-imidazol-5-yl)-7-(methylsulfanyl)imidazo[1,2-a]pyrimidin-2-yl]-3-(trifluoromethyl)-1H-1,2,4-triazole], the IC50 is 631 nM in the data set on CGAS and 5.01 nM against human CGAS (157-522).

For the molecule `FC(F)(F)c1n[nH]c(-c2nc3nc4c(cn3c2-c2cnc[nH]2)CSCC4)n1` [Example 103, 6-(1H-imidazol-5-yl)-5-[3-(trifluoromethyl)-1H-1,2,4-triazol-5-yl]-11-thia-2,4,7-triazatricyclo[7.4.0.03,7]trideca-1,3,5,8-tetraene], the results for the IC50 in the data set with CGAS and against human CGAS (157-522) were 251 nM and 1.26 nM, respectively.

With `FC(F)(F)c1n[nH]c(-c2nc3ncccn3c2-c2c[nH]cn2)n1` [Example 1, 5-[3-(1H-imidazol-4-yl)imidazo[1,2-a]pyrimidin-2-yl]-3-(trifluoromethyl)-1H-1,2,4-triazole], the concentration in solution in data set [1] (solubility at 4 h) came to 4 µg/mL (≈ 12.5 µM). Further, the IC50 in the data set with CGAS was 158 nM.

Regarding `FC(F)c1ccn2c(-c3cnc[nH]3)c(-c3nc(C(F)F)n[nH]3)nc2n1` [Example 8, 3-(difluoromethyl)-5-[7-(difluoromethyl)-3-(1H-imidazol-5-yl)imidazo[1,2-a]pyrimidin-2-yl]-1H-1,2,4-triazole], the IC50 in the data set with CGAS was 200 nM; against human CGAS (157-522), 3.16 nM.

Take `FC(F)(F)c1n[nH]c(-c2nc3nc4c(cn3c2-c2c[nH]cn2)COC4)n1` [Example 10, 12-(1H-imidazol-4-yl)-11-[3-(trifluoromethyl)-1H-1,2,4-triazol-5-yl]-5-oxa-1,8,10-triazatricyclo[7.3.0.0^3, ^7] dodeca-2,7,9,11-tetraene, 0.2 trifluoroacetic acid salt]: the figures for the IC50 with CGAS and against human CGAS (157-522) were 126 nM and 6.31 nM, respectively.

As for `FC(F)(F)c1n[nH]c(-c2nc3ncc(COCCC4CCCO4)cn3c2-c2cnc[nH]2)n1` (centres unmarked) [Example 141, 5-[3-(1H-imidazol-5-yl)-6-{[2-(oxolan-2-yl)ethoxy]methyl}imidazo[1,2-a]pyrimidin-2-yl]-3-(trifluoromethyl)-1H-1,2,4-triazole], the results for the IC50 with CGAS and against human CGAS (157-522) were 316 nM and 3.98 nM, respectively.

For the molecule `FC(F)(F)c1n[nH]c(-c2nc3ncc(C4CCOC4)cn3c2-c2cnc[nH]2)n1` (centres unmarked) [Example 66, 5-[3-(1H-imidazol-5-yl)-6-(oxolan-3-yl)imidazo[1,2-a]pyrimidin-2-yl]-3-(trifluoromethyl)-1H-1,2,4-triazole], the IC50 is 316 nM with CGAS and 2.51 nM against human CGAS (157-522).

As for `FC(F)(F)c1n[nH]c(-c2nc3ncc(OC4CCOC4)cn3c2-c2cnc[nH]2)n1` (centres unmarked) [Example 161, 5-[3-(1H-imidazol-5-yl)-6-(oxolan-3-yloxy)imidazo[1,2-a]pyrimidin-2-yl]-3-(trifluoromethyl)-1H-1,2,4-triazole], the IC50 is 251 nM with CGAS and 5.01 nM against human CGAS (157-522).

With `FC(F)(F)c1n[nH]c(-c2nc3ncc(CC4CCCCC4)cn3c2-c2cnc[nH]2)n1` [Example 15, 5-[6-(cyclohexylmethyl)-3-(1H-imidazol-5-yl)imidazo[1,2-a]pyrimidin-2-yl]-3-(trifluoromethyl)-1H-1,2,4-triazole, trifluoroacetic acid salt], the IC50 in the data set on CGAS is over 31600 nM; against human CGAS (157-522), 10 nM.

Consider `COCc1cn2c(-c3cnc[nH]3)c(-c3nc(C(F)(F)F)n[nH]3)nc2nc1C(F)(F)F` [Example 114, 5-[3-(1H-imidazol-5-yl)-6-(methoxymethyl)-7-(trifluoromethyl)imidazo[1,2-a]pyrimidin-2-yl]-3-(trifluoromethyl)-1H-1,2,4-triazole], for which the IC50 with CGAS was 1000 nM; against human CGAS (157-522), 3.98 nM.

Regarding `COCc1cnc2nc(-c3nc(C(F)F)n[nH]3)c(-c3cnc[nH]3)n2c1` [Example 86, 3-(difluoromethyl)-5-[3-(1H-imidazol-5-yl)-6-(methoxymethyl)imidazo[1,2-a]pyrimidin-2-yl]-1H-1,2,4-triazole], the IC50 was 50.1 nM with CGAS and 3.98 nM at human CGAS (157-522).
